Experimental data taken from US20210386367A1, “DEVICES AND SYSTEMS FOR GASTROINTESTINAL MICROBIOME DETECTION AND MANIPULATION” (Progenity, Inc., priority 2018, published 2021).
Converted amounts (≈) assume the structure as drawn. “And” between values parts separate entries of the source, which are not always exact repeats. Identical values can stand only once. Like-named read-outs stand apart in the source and are kept apart here.

How the values were obtained:
Assay type in all cases: cell-based
Enterococcus faecalis = test: Broth microdilution MIC, 50 clinical isolates
How it was run: (§1)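 Medium: cation-adjusted MHB, plus 3% lysed horse blood for streptococci, which were incubated with CO2 planchets. Final inoculum approx. 5×10^5 CFU/mL; serial two-fold drug dilutions per CLSI.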

Streptococcus spp. = test: Broth microdilution MIC, 54 clinical isolates; details: for Mode: modal MIC
Method: Minimal inhibitory concentration (MIC) values were determined by broth microdilution or agar dilution in accordance with guidelines from the Clinical and Laboratory Standards Institute (CLSI; (1) “Methods for Dilution Antimicrobial Susceptibility Tests for Bacteria That Grow Aerobically; Approved Standard; 11th ed.” CLSI standard M07-A11, 2018; (2) “Performance Standards for Antimicrobial Susceptibility Testing; Twenty-Eighth Informational Supplement,” CLSI document M100-S28, 2018; and (3) “Methods for Antimicrobial Susceptibility Testing of Anaerobic Bacteria; Approved Standard—Eighth Edition,” CLSI document M11-A8, 2012).
Tested aerobically by broth microdilution: • Escherichia coli, n=50 • Klebsiella spp., n=50 • Pseudomonas aeruginosa, n=50 • Streptococcus spp., n=50 • Staphylococcus aureus, n=50 • Enterococcus faecalis, n=50 • Enterobacter aerogenes, n=50 • Proteus mirabilis, n=50
Broth microdilution testing of aerobic bacteria was conducted in cation-adjusted Mueller Hinton broth (MHBII). For testing streptococci, lysed horse blood (LHB) was added to MHBII broth at a final concentration of 3%. Where LHB was used, it was added after filtering.
Broth microdilution susceptibility testing in 96-well microplates was conducted in accordance with CLSI methods (1) and (2). Automated liquid handlers were used to conduct serial dilutions and liquid transfers, including the Multidrop 384 (Labsystems, Helsinki, Finland), Biomek 2000, and the Biomek FX (Beckman Coulter, Fullerton, Calif.). All wells in columns 2 through 12 of a standard 96-well microdilution plate (Costar 3795) were filled with 150 μL of the appropriate diluent. Then, 300 μL of the test agents were added to the wells of column 1 of the plates at 100× the highest final concentration to be tested. Serial two-fold dilutions were made across the rows through column 11 using the Biomek 2000. The wells of column 12 contained no drug and served as the growth control wells. This plate served as the “mother plate” from which MIC assay plates or “daughter plates” were made.
The daughter plates were loaded with 190 μL per well of the appropriate medium using the Multidrop 384. The daughter plates were created using the Biomek FX which transferred 2 μL of drug solution from each well of a mother plate to each corresponding well of the daughter plate in a single step. A standardized inoculum of each test organism was prepared per CLSI methods (1) to equal a 0.5 McFarland standard, followed by a dilution of 1:20 for aerobes and 1:10 for anaerobes. The plates were then inoculated with 10 μL of the diluted inoculum using the Biomek 2000 from low to high drug concentration, resulting in a final concentration of approximately 5×10^5 CFU/mL per well. An un-inoculated plate was incubated in parallel for each medium for the purpose of assessing solubility of the drug in the test media.
Inoculated plates were stacked 3 or 4 high, covered with a sterile lid on the top plate, placed into boxes with CO2 planchets (streptococci) or plastic bags (all other isolates). Plates were incubated at 35° C. for 16-24 hr in ambient air for aerobes or for 42-48 hr in the anaerobic environment of the Bactron II anaerobe chamber (Sheldon Manufacturing Co.; Cornelius, Oreg.). Following incubation, the microplates were removed from the incubator and viewed from the bottom using a plate viewer. The MIC values were read and recorded as the lowest concentration of drug that inhibited visible growth of the organism as per CLSI methods (1) and (2).

Staphylococcus aureus = test: Broth microdilution MIC, 50 clinical isolates (28 MRSA)
How it was run: as §1

[1] = test system: Enterococcus faecalis clinical isolates; test: MIC distribution against clinical isolates; details: 50 E. faecalis isolates
[2] = test system: Staphylococcus aureus clinical isolates; test: MIC distribution against clinical isolates
[3] = test system: Streptococcus pyogenes clinical isolates; test: MIC distribution against clinical isolates; details: 19 S. pyogenes isolates
From the text: (§2) As used herein, “minimum inhibitory concentration” or “MIC” refers to the lowest concentration of an antimicrobial agent, for example, an antimicrobial agent as described herein, required to inhibit the growth of an organism. […] “MIC90” represents the MIC value at which ≥90% of the strains within a test population are inhibited; the 90th percentile.
(§3) Many susceptibility testing methods are known in the art and can be used as described herein (see, e.g., Jorgensen and Ferraro (2009) Clinical Infectious Diseases 49:1749-1755; and Maurer et al. (2017) Infectious Disease Reports 9:6839; the entire contents of each of the foregoing are incorporated herein by reference). For example, antimicrobial susceptibility can be determined using conventional culture based methods such as the broth or agar dilution test. In these dilution tests, the bacterial isolate of interest is inoculated onto different media that include serial dilutions of an antimicrobial agent, and incubated under appropriate conditions (e.g., overnight at 37° C.) to allow for growth to occur. Following the incubation period, the media is examined to determine bacterial growth. The lowest concentration of antibiotic that prevents growth represents the minimal inhibitory concentration (MIC). Broth dilution tests can be miniaturized and mechanized allowing for reproducibility and high throughput.

[4] = test system: Viridans group Streptococci clinical isolates; test: MIC distribution against clinical isolates; details: 15 Viridans group Streptococci isolates
From the text: as §2, §3

[5] = 54 Streptococcus spp. clinical isolates
[6] = MIC 0.015 μg/mL, 50 S. aureus isolates
[7] = MIC 0.03 μg/mL, 50 S. aureus isolates
[8] = MIC 0.06 μg/mL, 50 S. aureus isolates
[9] = MIC 1 μg/mL, 50 S. aureus isolates
[10] = MIC 2 μg/mL, 50 S. aureus isolates
[11] = MIC 4 μg/mL, 50 S. aureus isolates
[12] = MIC 8 μg/mL, 50 S. aureus isolates
[13] = MIC >8 μg/mL, 50 S. aureus isolates
[14] = MIC 32 μg/mL, 50 S. aureus isolates

Compound: COc1c(N2C[C@@H]3CCCN[C@@H]3C2)c(F)cc2c(=O)c(C(=O)O)cn(C3CC3)c12 [moxifloxacin]
- Mode (Enterococcus faecalis): >8 µg/mL
- MIC50 (Enterococcus faecalis; Enterococcus faecalis, read-out: MIC50): 0.5 µg/mL (≈ 1.25 µM)
- MIC90 (Enterococcus faecalis; Enterococcus faecalis, read-out: MIC90): > 8 µg/mL
- MIC range (Streptococcus spp.; [5]): 0.06 to 8 µg/mL
- MIC50 (Streptococcus spp.; 54 Streptococcus spp. clinical isolates, read-out: MIC50): 0.12 µg/mL (≈ 0.299 µM)
- MIC90 (Streptococcus spp.; 54 Streptococcus spp. clinical isolates, read-out: MIC90): 0.5 µg/mL (≈ 1.25 µM)
- Mode (Streptococcus spp.; [5]): 0.12 µg/mL
- Mode (Staphylococcus aureus): 1 µg/mL
- MIC50 (Staphylococcus aureus; Staphylococcus aureus, read-out: MIC50): 0.12 µg/mL (≈ 0.299 µM)
- MIC90 (Staphylococcus aureus; Staphylococcus aureus, read-out: MIC90): 2 µg/mL (≈ 4.98 µM)
- Cumulative percentage of isolates inhibited at MIC ([1]; MIC 0.06 μg/mL): 2.0%
- Number of test isolates at MIC ([1]; MIC 0.06 μg/mL): 1
- Cumulative percentage of isolates inhibited at MIC ([1]; MIC 0.5 μg/mL): 52.0%
- Number of test isolates at MIC ([1]; MIC 0.5 μg/mL): 4
- Cumulative percentage of isolates inhibited at MIC ([1]; MIC 2 μg/mL): 54.0%
- Number of test isolates at MIC ([1]; MIC 2 μg/mL): 1
- Cumulative percentage of isolates inhibited at MIC ([1]; MIC 4 μg/mL): 56.0%
- Number of test isolates at MIC ([1]; MIC 4 μg/mL): 1
- Cumulative percentage of isolates inhibited at MIC ([1]; MIC 8 μg/mL): 66.0%
- Number of test isolates at MIC ([1]; MIC 8 μg/mL): 5
- Cumulative percentage of isolates inhibited at MIC ([1]; MIC >8 μg/mL): 100.0%
- Number of test isolates at MIC ([1]; MIC >8 μg/mL): 17
- Cumulative percentage of isolates inhibited at MIC [2, 6]: 14.0%
- Number of test isolates at MIC [2, 6]: 7
- Cumulative percentage of isolates inhibited at MIC [2, 7]: 30.0%
- Number of test isolates at MIC [2, 7]: 8
- Cumulative percentage of isolates inhibited at MIC [2, 8]: 48.0%
- Number of test isolates at MIC [2, 8]: 9
- Number of test isolates at MIC ([2]; MIC 0.5 μg/mL, 50 S. aureus isolates): 4
- Cumulative percentage of isolates inhibited at MIC [2, 9]: 84.0%
- Number of test isolates at MIC [2, 9]: 12
- Cumulative percentage of isolates inhibited at MIC [2, 10]: 94.0%
- Number of test isolates at MIC [2, 10]: 5
- Cumulative percentage of isolates inhibited at MIC [2, 11]: 96.0%
- Number of test isolates at MIC [2, 11]: 1
- Cumulative percentage of isolates inhibited at MIC [2, 12]: 98.0%
- Number of test isolates at MIC [2, 12]: 1
- Cumulative percentage of isolates inhibited at MIC [2, 13]: 100.0%
- Number of test isolates at MIC [2, 13]: 1
- Number of test isolates at MIC ([2]; MIC […], 50 S. aureus isolates): 1
- Cumulative percentage of isolates inhibited at MIC ([3]; MIC 0.06 μg/mL): 31.6%
- Number of test isolates at MIC ([3]; MIC 0.06 μg/mL): 6
- Cumulative percentage of isolates inhibited at MIC ([3]; MIC 0.5 μg/mL): 100.0%
- Number of test isolates at MIC ([3]; MIC 0.5 μg/mL): 1
- Cumulative percentage of isolates inhibited at MIC ([4]; MIC 0.06 μg/mL): 26.7%
- Number of test isolates at MIC ([4]; MIC 0.06 μg/mL): 4
- Cumulative percentage of isolates inhibited at MIC ([4]; MIC 2 μg/mL): 80.0%
- Number of test isolates at MIC ([4]; MIC 2 μg/mL): 2
- Cumulative percentage of isolates inhibited at MIC ([4]; MIC 4 μg/mL): 93.3%
- Number of test isolates at MIC ([4]; MIC 4 μg/mL): 2
- Cumulative percentage of isolates inhibited at MIC ([4]; MIC 8 μg/mL): 100.0%
- Number of test isolates at MIC ([4]; MIC 8 μg/mL): 1

Compound: CO[C@H]1/C=C/O[C@@]2(C)Oc3c(C)c(O)c4c(O)c(c5c(nc6cc(C)ccn65)c4c3C2=O)NC(=O)/C(C)=C\C=C\[C@H](C)[C@H](O)[C@@H](C)[C@@H](O)[C@@H](C)[C@H](OC(C)=O)[C@@H]1C [rifaximin]
- MIC50 (Enterococcus faecalis): 2 µg/mL (≈ 2.54 µM)
- MIC90 (Enterococcus faecalis): 4 µg/mL (≈ 5.09 µM)
- Mode (Enterococcus faecalis): 1 µg/mL
- relative activity among drugs tested (Enterococcus faecalis): slightly more active than meropenem
- MIC50 (Streptococcus spp.): 0.12 µg/mL (≈ 0.153 µM)
- MIC90 (Streptococcus spp.): 0.25 µg/mL (≈ 0.318 µM)
- MIC50 (Streptococcus spp.; [5]): 0.12 µg/mL (≈ 0.153 µM)
- MIC90 (Streptococcus spp.; [5]): 0.25 µg/mL (≈ 0.318 µM)
- MIC range (Streptococcus spp.; [5]): 0.015 to 0.3 µg/mL
- Mode (Streptococcus spp.; [5]): 0.12 µg/mL
- MIC50 (Staphylococcus aureus): 0.015 µg/mL (≈ 0.0191 µM)
- MIC90 (Staphylococcus aureus): 0.06 µg/mL (≈ 0.0763 µM)
- MIC range (Staphylococcus aureus): 0.008 to 32 µg/mL
- Mode (Staphylococcus aureus): 0.015 µg/mL
- relative activity among drugs tested (Staphylococcus aureus): most active drug tested
- Number of test isolates at MIC ([1]; MIC 0.5 μg/mL): 5
- Cumulative percentage of isolates inhibited at MIC ([2]; MIC 0.008 μg/mL, 50 S. aureus isolates): 8.0%
- Cumulative percentage of isolates inhibited at MIC [2, 14]: 100.0%
- Number of test isolates at MIC [2, 14]: 1
- Cumulative percentage of isolates inhibited at MIC ([2]; listed as RFX): 70.0% and 78.0% and 94.0% and 98.0%
- Number of test isolates at MIC ([3]; MIC 0.06 μg/mL): 6
- Number of test isolates at MIC ([4]; MIC 0.06 μg/mL): 6
